Laboratory results taken from article PMC7612365 (Cancer Discovery, 2021).
Like-named read-outs stand apart in the source and are kept apart here.

Assays:
[1] = Vandetanib concentration in brain and tumor of NSG mice; type: in vivo; settings: mouse, intraperitoneal, combined with everolimus
Protocol: (§1) Both patient-derived H3F3A^K27M, ACVR1^R206H HSJD-DIPG-007 cells and those derived from a Nestin-Tv-a; Trp53^fl/fl; Hist1h3b^K27M, Acvr1^R206H ([14]) GEMM were used for orthotopic implantation. A single-cell suspension of each culture was made the day before implantation and cultured overnight. On the implantation day, small tumorspheres in exponential growth were harvested by mild centrifugation. Three-week-old female athymic mice were anesthetized with 100 mg/kg ketamine and 10 mg/kg xylazine and immobilized in a stereotaxic apparatus (Stoelting) at coordinates x+0.5 and y−5.4 from the bregma suture. HSJD-DIPG-007 tumorspheres (5 × 10^5 cells), suspended in 5 μL Matrigel (BD Biosciences), were injected at a 3.1-mm depth (targeting the fourth ventricle) with a dull 22-gauge needle attached to a 50-μL syringe (Hamilton), using a stereotaxic arm. The animals (n = 72) were divided in four groups, with treatment starting 4 weeks (day 25) after tumor inoculation. […] Mice were monitored by daily weighing and sacrificed by decapitation upon deterioration of condition or 20% weight loss from the maximum weight achieved, with tissue taken for further analysis. Mouse brains collected at the end of the efficacy study were processed for IHC. […]

[2] = substrates of efflux transporters ABCB1 (P-gp) and/or ABCG2 (BCRP) ref 27, 28; cited from earlier work
[3] = Vandetanib concentration in brain and tumor of nude mice; type: in vivo; settings: female, athymic nude, mouse, intraperitoneal, combined with everolimus
Protocol: as §1

[4] = molecular target: T1, ABCB1 (P-gp) (Homo sapiens, UniProt P08183); settings: Caco-2
Protocol: (§2) Apparent permeability (Papp) was determined in the Caco-2 human colon carcinoma cell line. Cells were maintained (DMEM with 10% FBS, penicillin, and streptomycin) in a humidified atmosphere with 5%CO2/95% air for 10 days. Cells were plated out onto a cell culture assembly plate (Millipore), and monolayer confluency was checked using a transepithelial electrical resistance (TEER) electrode prior to the assay. Media were washed off and replaced in the appropriate apical and basal wells with Hank's Balanced Salt Solution buffer (pH 7.4). […] LY335979 (P-gp inhibitor) and Ko134 (BCRP inhibitor) were used as positive controls. The Caco-2 plate was incubated for 2 hours at 37°C in a humidified atmosphere with 5% CO2, and Lucifer yellow was used to confirm membrane integrity after the assay. Samples from the apical and basolateral chambers were analyzed using reverse chromatography tandem mass spectrometry on a Waters TQ-S.

[5] = molecular target: T2, ABCG2 (BCRP) (Homo sapiens, UniProt Q9UNQ0); assay: Caco-2 permeability assay with BCRP substrate E3S; type: in vitro ADME; settings: for interaction with BCRP / B–A apparent permeability of control substrate: Caco-2
T2 construct: Apparent permeability (Papp) was determined in the Caco-2 human colon carcinoma cell line; endogenous in cells; host or cells: Caco-2
T2 sequence (Q9UNQ0 1-655): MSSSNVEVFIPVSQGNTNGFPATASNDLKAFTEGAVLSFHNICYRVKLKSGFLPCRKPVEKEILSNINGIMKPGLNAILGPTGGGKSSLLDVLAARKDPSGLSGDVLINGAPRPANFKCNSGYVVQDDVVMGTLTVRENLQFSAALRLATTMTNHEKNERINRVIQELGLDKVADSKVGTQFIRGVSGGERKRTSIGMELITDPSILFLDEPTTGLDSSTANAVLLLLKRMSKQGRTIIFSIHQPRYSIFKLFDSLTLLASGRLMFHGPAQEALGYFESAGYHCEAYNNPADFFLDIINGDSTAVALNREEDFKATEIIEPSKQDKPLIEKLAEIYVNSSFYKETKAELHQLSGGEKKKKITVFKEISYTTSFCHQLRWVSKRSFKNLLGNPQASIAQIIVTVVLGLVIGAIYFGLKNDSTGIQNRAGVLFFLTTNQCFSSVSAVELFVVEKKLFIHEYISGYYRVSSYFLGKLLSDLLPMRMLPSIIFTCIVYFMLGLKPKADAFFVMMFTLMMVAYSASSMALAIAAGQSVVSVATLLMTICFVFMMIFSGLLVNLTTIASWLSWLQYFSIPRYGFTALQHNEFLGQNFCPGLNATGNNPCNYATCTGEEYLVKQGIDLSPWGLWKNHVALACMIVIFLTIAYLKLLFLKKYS
Protocol: as §2

[6] = system: DIPG; settings: cited from earlier work
[7] = with everolimus to inhibit P-gp and BCRP ref 41; cited from earlier work
[8] = cited from earlier work
[9] = Vandetanib brain concentration in non-tumor-bearing mice (LC-MS/MS); type: in vivo, mouse; settings: with everolimus compared with vandetanib alone, P = 0.0854
Protocol: Plasma and brain tissue samples were taken in triplicate at 1 hour after the last dose. Analysis was carried out by LC-MS/MS using a Xevo TQS coupled with an Acquity UPLC H-class system (Waters). Chromatography was carried out using a Phenomenex C18 X-B column (2.6 μm, 50 × 2.1 mm). Data acquisition was performed using Targetlynx, version 4.1, and modeling was carried out using Phoenix WinNonlin version 6.3.

[10] = system: ACVR1-mutant and wild-type patient-derived DIPG cells; assay: Single-agent cell viability in patient-derived DIPG cells; settings: in vitro; P = 0.0272
Protocol: Cells were plated at a density of 2,000 to 4,000 cells/well on laminin-coated 96-well plates in a minimum of triplicates. After 3 days of incubation, compounds were added to each well and incubated at 37°C in 5% CO2, 95% humidity for 8 days (192 hours). […] Cell viability was assessed by the CellTiter-Glo luminescent cell viability assay (Promega).

[11] = up to 70 mg weekly ref 54; cited from earlier work
[12] = molecular target: T1, ABCB1 (P-gp); assay: Caco-2 permeability assay with P-gp substrate indinavir
Protocol: as §2

T1 sequence (P08183 whole entry): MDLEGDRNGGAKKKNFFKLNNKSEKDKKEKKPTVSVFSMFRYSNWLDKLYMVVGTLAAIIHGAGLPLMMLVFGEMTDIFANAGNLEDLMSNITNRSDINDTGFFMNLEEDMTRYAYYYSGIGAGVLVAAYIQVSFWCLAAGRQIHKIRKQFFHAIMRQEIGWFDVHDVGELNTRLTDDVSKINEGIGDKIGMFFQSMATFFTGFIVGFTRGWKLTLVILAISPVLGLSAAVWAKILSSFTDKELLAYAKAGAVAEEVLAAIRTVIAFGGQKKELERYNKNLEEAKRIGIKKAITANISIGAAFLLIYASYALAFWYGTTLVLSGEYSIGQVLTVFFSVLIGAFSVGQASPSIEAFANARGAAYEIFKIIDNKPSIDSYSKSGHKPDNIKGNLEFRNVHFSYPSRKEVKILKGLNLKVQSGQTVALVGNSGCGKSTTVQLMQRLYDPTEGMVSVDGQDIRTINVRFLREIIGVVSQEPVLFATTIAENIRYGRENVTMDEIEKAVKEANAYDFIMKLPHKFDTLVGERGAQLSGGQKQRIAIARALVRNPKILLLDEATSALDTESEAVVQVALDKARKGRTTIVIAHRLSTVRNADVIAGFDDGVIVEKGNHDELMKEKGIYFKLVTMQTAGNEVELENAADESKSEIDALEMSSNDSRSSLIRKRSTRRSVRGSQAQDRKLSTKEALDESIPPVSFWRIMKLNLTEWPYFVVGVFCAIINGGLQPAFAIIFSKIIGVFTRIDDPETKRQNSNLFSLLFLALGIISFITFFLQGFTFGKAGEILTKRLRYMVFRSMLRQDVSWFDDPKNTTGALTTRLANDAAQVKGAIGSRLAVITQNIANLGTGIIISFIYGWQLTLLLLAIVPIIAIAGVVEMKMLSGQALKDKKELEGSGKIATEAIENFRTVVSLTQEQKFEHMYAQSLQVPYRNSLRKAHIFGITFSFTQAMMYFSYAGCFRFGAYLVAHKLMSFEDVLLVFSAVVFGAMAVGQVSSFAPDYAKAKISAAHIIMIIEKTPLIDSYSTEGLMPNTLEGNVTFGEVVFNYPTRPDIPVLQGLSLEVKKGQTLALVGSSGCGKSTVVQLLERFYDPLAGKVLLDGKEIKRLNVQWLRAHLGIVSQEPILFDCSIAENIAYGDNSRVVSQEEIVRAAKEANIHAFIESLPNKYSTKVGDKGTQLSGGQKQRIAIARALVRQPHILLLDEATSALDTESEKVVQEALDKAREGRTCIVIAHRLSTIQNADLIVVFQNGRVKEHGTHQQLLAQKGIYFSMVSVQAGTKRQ

For `COc1cc2c(Nc3ccc(Br)cc3F)ncnc2cc1OCC1CCN(C)CC1` [vandetanib], the concentration at 2 h ([1]; normal brain) is given as 10 µM, the concentration at 2 h ([1]; tumour (GEMM allograft)) is given as < 5 µM and the brain exposure [2] is given as “insufficient brain exposures”. For the same molecule, the concentration at 2 h ([3]; normal brain) was > 15 µM, the concentration at 2 h ([3]; tumour (PDX)) was > 15 µM and the “interaction with P-gp / B–A apparent permeability of control substrate” value [4] was “weak interactions”. For the same molecule, the “interaction with BCRP / B–A apparent permeability of control substrate” value [5] was “weak interactions”, the “effect of adding vandetanib to everolimus on BCRP substrate permeability” value ([5]; Caco-2, combination) was “no effect” and the “DLT (diarrhea grade 3)” value ([6]; in vivo) was “one”. For the same molecule, the RP2D ([6]; in vivo) was 145 mg/m^2/d, the “patients with grade 4 hypertension and posterior reversible encephalopathy syndrome” value ([6]; in vivo) was “two” and the “2-year OS” value ([6]; single agent ref 32) was 21.4%. The MTD ([6]; single agent ref 32) was “not reached”, the objective responses ([6]; single agent ref 32) was “no objective responses” and the “vandetanib brain concentrations in mice” value [7] was “significantly increased”. The “MTD and recommended phase II dose of vandetanib” value ([8]; in combination with everolimus ref 42) was 300 mg once daily, the “increase of median brain concentration of vandetanib” value [9] was 56% and the “enhanced difference in cell viability, ACVR1-mutant compared with wild-type DIPG cells” value [10] was “approximately twofold”.
In the case of `C[C@@H](Oc1cc(-c2cnn(C3CCNCC3)c2)cnc1N)c1c(Cl)ccc(F)c1Cl` [crizotinib], the brain exposure [2] is listed as “insufficient brain exposures”.
In the case of `CO[C@H]1C[C@@H]2CC[C@@H](C)[C@@](O)(O2)C(=O)C(=O)N2CCCC[C@H]2C(=O)O[C@H]([C@H](C)C[C@@H]2CC[C@@H](OCCO)[C@H](OC)C2)CC(=O)[C@H](C)/C=C(\C)[C@@H](O)[C@@H](OC)C(=O)[C@H](C)C[C@H](C)/C=C/C=C/C=C/1C` [everolimus], the “mean peak levels compared with standard regimens” value [11] is listed as “tenfold higher”, the “tolerability of higher doses” value [11] is listed as “well tolerated” and the “interaction with BCRP / B–A apparent permeability of control substrate” value [5] is listed as “significantly decreased”. The “interaction with P-gp / B–A apparent permeability of control substrate” value [12] was “significantly decreased” and the “MTD and recommended phase II dose of everolimus” value ([8]; in combination with vandetanib ref 42) was 10 mg once daily.
